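Cultured in 96-well plates, cells were exposed to test compound for 48 hours across five concentrations. TGI: concentration producing complete growth inhibition.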
Assays:
Assay in all cases: NCI-60 cell line screen, 48 h
[1] = tested on: EKVX NSCLC
[2] = tested on: A498 renal
[3] = tested on: CCRF-CEM leukemia
[4] = tested on: MCF7 breast
[5] = tested on: SR leukemia
[6] = tested on: LOX IMVI melanoma
[7] = tested on: SF-539 CNS
[8] = tested on: RPMI-8226 leukemia
[9] = tested on: ACHN renal
[10] = tested on: MDA-MB-231 breast
[11] = tested on: KM12 colon
[12] = tested on: OVCAR-8 ovarian
[13] = tested on: U251 CNS
[14] = tested on: CAKI-1 renal
[15] = tested on: MOLT-4 leukemia
[16] = tested on: SK-MEL-5 melanoma
[17] = tested on: HCC-2998 colon
[18] = tested on: COLO 205 colon
[19] = tested on: SK-MEL-28 melanoma
[20] = tested on: SK-OV-3 ovarian
[21] = tested on: SK-MEL-2 melanoma
[22] = tested on: SN12C renal
[23] = tested on: HCT-116 colon
[24] = tested on: RXF 393 renal
[25] = tested on: IGROV1 ovarian
[26] = tested on: OVCAR-3 ovarian
[27] = tested on: UO-31 renal
[28] = tested on: HS 578T breast
[29] = tested on: MDA-N
[30] = tested on: HOP-62 NSCLC
[31] = tested on: HCT-15 colon
[32] = tested on: NCI-H23 lung
[33] = tested on: PC-3 prostate
[34] = tested on: SNB-75 CNS
[35] = tested on: SF-295 CNS
[36] = tested on: HOP-92 NSCLC
[37] = tested on: MDA-MB-435
[38] = tested on: NCI/ADR-RES ovarian
[39] = tested on: BT-549 breast
[40] = tested on: 786-0 renal
[41] = tested on: M14 melanoma
[42] = tested on: MALME-3M melanoma
[43] = tested on: DU-145 prostate
[44] = tested on: OVCAR-4 ovarian
[45] = tested on: UACC-257 melanoma
[46] = tested on: HL-60(TB) leukemia
[47] = tested on: NCI-H460 lung
[48] = tested on: NCI-H522 lung
[49] = tested on: UACC-62 melanoma
[50] = tested on: SF-268 CNS
[51] = tested on: OVCAR-5 ovarian
[52] = tested on: HT29 colon
[53] = tested on: SNB-19 CNS
[54] = tested on: T-47D breast
[55] = tested on: SW-620 colon
[56] = tested on: NCI-H226 lung
[57] = tested on: A549 NSCLC
[58] = tested on: DLD-1 colon
[59] = tested on: RXF-631 renal
[60] = tested on: XF 498 CNS
[61] = tested on: DMS 273 small cell lung
[62] = tested on: KM20L2 colon
[63] = tested on: K-562 leukemia
[64] = tested on: DMS 114 small cell lung
[65] = tested on: LXFL 529 NSCLC
[66] = tested on: TK-10 renal
[67] = tested on: M19-MEL melanoma
[68] = tested on: SNB-78 CNS
[69] = tested on: HOP-18 NSCLC

Measured: TGI

CC(=O)OCC1OC(SC2=NC(=O)/C(=C/c3ccccc3)S2)C(OC(C)=O)C(OC(C)=O)C1OC(C)=O (configuration not stated)
87.2 µM: [49]
95 µM: [56]
94.4 µM: [3]
75.7 µM: [28]
42.9 µM: [6]
52.8 µM: [27]
54.5 µM: [15]
31.7 µM: [12]
52.2 µM: [4]
30.8 µM: [40]
44.2 µM: [36]
78.9 µM: [39]
12 µM: [14]
44.7 µM: [34]
66.3 µM: [8]
38.8 µM: [37]
84 µM: [38]
91 µM: [13]
44.5 µM: [10]
74.1 µM: [55]
42.8 µM: [16]
31.3 µM: [46]
51.5 µM: [5]
70.4 µM: [1]
> 100 µM: [9] | [11] | [17] | [18] | [19] | [20] | [21] | [22] | [23] | [25] | [29] | [30] | [31] | [32] | [33] | [35] | [41] | [43] | [44] | [45] | [47] | [51] | [52] | [53] | [54] | [57]
80.6 µM: [48]
44.4 µM: [26]
70.5 µM: [42]
67.6 µM: [24]
81.2 µM: [2]
45.7 µM: [7]
52.3 µM: [50]

CCCC(=O)c1ccc(=O)n(C)c1
> 100 µM: [1] | [3] | [5] | [6] | [7] | [8] | [9] | [11] | [12] | [13] | [14] | [15] | [16] | [17] | [18] | [19] | [20] | [21] | [22] | [58] | [23] | [24] | [25] | [26] | [27] | [59] | [30] | [60] | [31] | [32] | [34] | [35] | [61] | [62] | [63] | [36] | [64] | [65] | [40] | [41] | [42] | [66] | [44] | [46] | [47] | [48] | [49] | [50] | [51] | [52] | [53] | [67] | [55] | [56] | [57]

COc1ccc([C@H]2c3cc4c(cc3OC(O)(CO)[C@H]2C(=O)O)OCO4)c(OC)c1 (some centres not stated) (tested in a mixture with another compound)
95.8 µM: [19]
> 100 µM: [1] | [2] | [3] | [5] | [6] | [7] | [8] | [9] | [11] | [12] | [13] | [68] | [15] | [16] | [17] | [18] | [20] | [69] | [21] | [22] | [58] | [23] | [24] | [25] | [26] | [27] | [30] | [60] | [31] | [32] | [34] | [35] | [61] | [62] | [63] | [36] | [64] | [65] | [41] | [42] | [66] | [44] | [45] | [46] | [47] | [49] | [50] | [51] | [52] | [53] | [67] | [55] | [56] | [57]

— PubChem BioAssay (NCI)
